Data published in PubChem BioAssay (NCI).
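Five concentrations, 48 hours, 96-well plates. TGI denotes the concentration required for complete inhibition of growth.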

Assays:
Assay in all cases: NCI anticancer screen, dose series, 48 h
DU-145 prostate = tested on: DU-145 prostate
HCC-2998 colon = tested on: HCC-2998 colon
HCT-15 colon = tested on: HCT-15 colon
HOP-62 NSCLC = tested on: HOP-62 NSCLC
HS 578T breast = tested on: HS 578T breast
IGROV1 ovarian = tested on: IGROV1 ovarian
K-562 leukemia = tested on: K-562 leukemia
KM12 colon = tested on: KM12 colon
NCI/ADR-RES ovarian = tested on: NCI/ADR-RES ovarian
SN12C renal = tested on: SN12C renal

Row | Structure (SMILES) | TGI (DU-145 prostate) | TGI (HCC-2998 colon) | TGI (HCT-15 colon) | TGI (HOP-62 NSCLC) | TGI (HS 578T breast) | TGI (IGROV1 ovarian) | TGI (K-562 leukemia) | TGI (KM12 colon) | TGI (NCI/ADR-RES ovarian) | TGI (SN12C renal)
1 | CC1(C)CN=C(Nc2ccc(F)c(F)c2)S1 | > 100 µM | > 100 µM | > 100 µM | > 100 µM | > 100 µM | > 100 µM | > 100 µM | > 100 µM | > 100 µM | > 100 µM
2 | O=[As](O)(O)c1ccc2nc3cc([As](=O)(O)O)ccc3nc2c1 | > 100 µM | > 100 µM | > 100 µM | > 100 µM | > 100 µM | > 100 µM | > 100 µM | > 100 µM | > 100 µM | > 100 µM
3 | CN(C)Cc1cc(N=Nc2ccc(Cl)cc2)ccc1O | 48.1 µM | 28.6 µM | 29.1 µM | 21.7 µM | 31.3 µM | 32.3 µM | 35.2 µM | 34.5 µM | 33.4 µM | 33.1 µM
4 | CC1OC(O[C@H]2CC[C@]3(C=O)[C@H]4CC[C@]5(C)[C@H](C6=CC(=O)OC6)CC[C@]5(O)[C@@H]4C=C[C@]3(O)C2)CC(O)C1O (stereo partly specified) | 0.442 µM | 2.92 µM | 0.62 µM | 0.503 µM | 4.2 µM | 4.5 µM | 9.01 µM | 2.76 µM | 0.623 µM | 0.464 µM
5 | COC(=O)c1c(C(=O)OC)c2c3ccccc3n(C)c2c2c1c1ccccc1n2C | > 100 µM | > 100 µM | > 100 µM | 75 µM | > 100 µM | > 100 µM | > 100 µM | > 100 µM | > 100 µM | > 100 µM
6 | CCOC(=O)c1[nH]c2nc(SC)nc(Nc3ccccc3Cl)c2c1N | 95.7 µM | > 100 µM | > 100 µM | 41.3 µM | 61.8 µM | 86.2 µM | 40.5 µM | > 100 µM | 73.3 µM | > 100 µM
7 | COc1ccc(N2C(=O)/C(=C\c3cccc(Oc4ccccc4)c3)SC2c2ccccc2)cc1 (stereo unspecified) | > 100 µM | > 100 µM | > 100 µM | > 100 µM | > 100 µM |  | > 100 µM | > 100 µM | > 100 µM | > 100 µM
8 | COCCOCCOCCOc1ccc(C(C#N)N(CCc2ccccc2)C(=O)c2cc(C(=O)N(CCc3ccccc3)C(C#N)c3ccc(OCCOCCOCCOC)cc3)cc(C(=O)N(CCc3ccccc3)C(C#N)c3ccc(OCCOCCOCCOC)cc3)c2)cc1 (stereo unspecified) | > 100 µM | > 100 µM | > 100 µM | > 100 µM | > 100 µM | > 100 µM | > 100 µM | > 100 µM | > 100 µM | > 100 µM
9 | Cn1c(=O)oc2cc(Br)ccc21 | > 100 µM | > 100 µM | > 100 µM | > 100 µM | > 100 µM | > 100 µM | > 100 µM | > 100 µM | > 100 µM | > 100 µM
10 | COC1(CC[C@H](C)COC2OC(CO)C(O)C(O)C2O)O[C@H]2C[C@H]3[C@@H]4CC=C5C[C@@H](OC6OC(CO)C(O)C(OC7OC(CO)C(O)C(O)C7O)C6OC6OC(C)C(O)C(O)C6O)CC[C@]5(C)[C@H]4CC[C@]3(C)[C@H]2[C@@H]1C (stereo partly specified) | 4.29 µM | 11.6 µM | 7.43 µM | 12.4 µM | 24.6 µM | 11.8 µM | > 47.9 µM | 3.91 µM | 25.7 µM | > 31.1 µM
11 | O=c1[nH]c(=O)n(C/C=C/CBr)nc1Br | > 100 µM | 28.3 µM | 27.9 µM | 37.9 µM | 53.8 µM | 29.5 µM | 47.7 µM | 28.8 µM | 45.6 µM | 28.1 µM
12 | CC(=O)Oc1c(C)c2c(c3ccccc13)OC(C)(C)C2 | 31 µM | 32.7 µM | 30.6 µM | 34.5 µM | 53.9 µM | 30.9 µM | > 100 µM | 27.6 µM | 51.4 µM | 34.5 µM
13 | COc1ccc(Nc2nc3ccccc3nc2C(=O)O)cc1OC | > 100 µM | > 100 µM | > 100 µM | > 100 µM | > 100 µM | > 100 µM | > 100 µM | > 100 µM | > 100 µM | > 100 µM
14 | Cc1cc(C)n(C(=O)CSc2nnc(SCC(=O)n3nc(C)cc3C)s2)n1 | > 100 µM | > 100 µM | > 100 µM | > 100 µM | 89.3 µM |  | > 100 µM | > 100 µM | > 100 µM | > 100 µM
15 | Nc1c(N2CCCCC2)c(=O)nc2[nH]/c(=C\c3ccccc3)c(=O)n12 | > 100 µM | > 100 µM | > 100 µM |  | > 100 µM | > 100 µM | > 100 µM | > 100 µM | > 100 µM | > 100 µM
16 | COc1cc(C23OCC(Cc4cc5c(cc42)OCO5)C3CO)cc(OC)c1OC (stereo unspecified) | > 100 µM | 6.89 µM | > 100 µM | > 100 µM | > 100 µM | > 100 µM | > 100 µM | > 100 µM | 5.51 µM | 
17 | COc1ccc2c(c1)C(N)=C(Cc1ccncc1)C2=O | > 100 µM |  | > 100 µM | > 100 µM | > 100 µM | > 100 µM | > 100 µM | > 100 µM | > 100 µM | > 100 µM
18 | O=[N+]([O-])c1cccc2nc3ccccc3c(NCCCN3CCCCC3)c12 | 0.0295 µM |  | 0.109 µM | 0.0433 µM | 0.0966 µM | 0.0758 µM | 1.12 µM | 0.112 µM | 4.9 µM | 0.0443 µM
19 | C=CCn1cnc2c(=O)[nH]c(Nc3ccccc3)nc21 | > 100 µM | > 100 µM | > 100 µM | > 100 µM | > 100 µM | > 100 µM |  | > 100 µM | > 100 µM | > 100 µM
20 | C=C1CC(COc2ccc3c(C)cc(=O)oc3c2)(c2ccccc2)OC1=O (stereo unspecified) | 6.68 µM | 10.1 µM | 3.62 µM | 31 µM | > 27 µM | 3.57 µM |  | > 27.7 µM | 16.6 µM | 21.1 µM
21 | COC(=O)c1cc(C)n(CN(Cc2ccccc2)Cn2nc(C(=O)OC)cc2C)n1 | > 100 µM |  | > 58.2 µM | > 100 µM | > 100 µM | > 100 µM | > 100 µM | > 100 µM | > 100 µM | > 100 µM
